Measurements: PubChem BioAssay (NCI)
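Where inhibition never reached the appropriate level, the endpoint shown equals the highest concentration tested. Otherwise, values were interpolated linearly from a five-concentration, 48-hour dose response in 96-well plates. At the TGI there is no net growth.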

Assays:
Assay in all cases: NCI-60 cell line screen, 48 h
[1] = test system: SN12C renal
[2] = test system: A498 renal
[3] = test system: CCRF-CEM leukemia
[4] = test system: COLO 205 colon
[5] = test system: HL-60(TB) leukemia
[6] = test system: SR leukemia
[7] = test system: RPMI-8226 leukemia
[8] = test system: M14 melanoma
[9] = test system: SF-268 CNS
[10] = test system: KM12 colon
[11] = test system: IGROV1 ovarian
[12] = test system: HOP-62 NSCLC
[13] = test system: NCI-H226 lung
[14] = test system: SW-620 colon
[15] = test system: HCT-15 colon
[16] = test system: TK-10 renal
[17] = test system: MDA-N
[18] = test system: SK-OV-3 ovarian
[19] = test system: SK-MEL-2 melanoma
[20] = test system: SK-MEL-5 melanoma

Row | Structure (SMILES) | TGI [1] [µM] | TGI [2] [µM] | TGI [3] [µM] | TGI [4] [µM] | TGI [5] [µM] | TGI [6] [µM] | TGI [7] [µM] | TGI [8] [µM] | TGI [9] [µM] | TGI [10] [µM] | TGI [11] [µM] | TGI [12] [µM] | TGI [13] [µM] | TGI [14] [µM] | TGI [15] [µM] | TGI [16] [µM] | TGI [17] [µM] | TGI [18] [µM] | TGI [19] [µM] | TGI [20] [µM]
1 | COc1cc2c(c(O)c1OC)C(=O)[C@@H]1CCC(=O)N1C2c1ccccc1 (some centres undefined) | > 100 | > 100 | > 100 | > 100 | > 100 | > 100 | > 100 | > 100 | > 100 | > 100 | > 100 | > 100 | > 100 | > 100 | > 100 | > 100 | > 100 | > 100 | > 100 | –
2 | CCOC(=O)C(NC(C)=O)(Nc1ccc(S(N)(=O)=O)cc1)C(F)(F)F (centres undefined) | > 100 | > 100 | > 100 | > 100 | > 100 | > 100 | > 100 | > 100 | > 100 | > 100 | > 100 | > 100 | > 100 | > 100 | > 100 | > 100 | > 100 | > 100 | > 100 | > 100
3 | O=C1CSC(c2ccccc2)N1c1ccc(-n2c(-c3ccccc3)nc3ccccc3c2=O)cc1 (centres undefined) | > 100 | > 100 | > 100 | > 100 | > 100 | > 100 | > 100 | > 100 | > 100 | > 100 | > 100 | > 100 | > 100 | > 100 | > 100 | > 100 | > 100 | > 100 | > 100 | > 100
4 | C/C=C/C=C\C=C/C(O)C(C)C(CCC(C)C1OC(=O)C=CC1C)OP(=O)(O)O (centres undefined) | 1.11 | 0.404 | 0.625 | 0.788 | 0.17 | 0.511 | 0.491 | 0.685 | 2.03 | 1.16 | 0.694 | 0.786 | 2.02 | 1.67 | 1.97 | 1.91 | 1.32 | 1.68 | 2.32 | 1.84
5 | N#CC(C#N)=C/C=C/c1c(Cl)cccc1Cl | 3.9 | 6.49 | > 10 | 3.17 | 4.04 | > 10 | 7.46 | 3.06 | 4.07 | 3.02 | 4.27 | 8.87 | 7.05 | 4.21 | 4.01 | 6.24 | 3.23 | 5.64 | 3.47 | 3.28
6 | O=C(O)c1ccccc1CC1Cc2cc3c(cc2C1)CCC3 | > 100 | > 100 | > 100 | > 100 | > 100 | > 100 | > 100 | > 100 | > 100 | > 100 | > 100 | > 100 | > 100 | > 100 | > 100 | > 100 | > 100 | > 100 | > 100 | > 100
7 | C=C1[C@H](OCC(C)C)[C@@H](O)[C@@H](OC(=O)c2cccnc2)C(C)(C)/C=C/[C@H](C)[C@H](OC(C)=O)[C@@]2(O)C[C@@](C)(OC(C)=O)[C@H](OC(=O)c3ccccc3)[C@@H]2[C@H]1OC(C)=O | > 5 | 2.79 | > 2.82 | > 5 | > 2.09 | > 3.35 | 3.35 | > 4.49 | > 3.24 | > 2.97 | > 5 | 2.26 | 4.57 | > 5 | 4.97 | > 5 | > 5 | > 5 | > 3.78 | > 5
8 | COc1ccc2c(c1)-c1c(c3cc(OC)ccc3n1CCCN(C)C)CC2 | 28.5 | 31.3 | 14.1 | 5.9 | 55.3 | 22.1 | 26 | 4.8 | 26.2 | 21.8 | > 36.2 | 29.2 | 6.82 | 32.1 | 32.1 | 39.7 | 16 | 32.7 | 31 | 8.29
9 | C/C=C(/C)C(=O)O[C@H]1[C@H]2[C@@H]([C@@H](OC(C)=O)[C@H](C)C(=O)[C@@]34C[C@@H](C)C(=O)[C@]3(/C=C(\C)[C@H]1OC(C)=O)O4)C2(C)C | 5.33 | 16 | 3.35 | 5.32 | 2.13 | 7.34 | 9.94 | 5.22 | > 20 | 17.8 | 9.96 | 12 | 6.56 | 6.41 | 5.77 | 7.61 | 4.94 | > 20 | 11 | 7.75
10 | O=C1OC(C2Cc3ccc4c(c3C2=O)CCC4)c2ccccc21 (centres undefined) | > 100 | > 100 | > 100 | 45.8 | 83.1 | > 100 | 85.1 | > 100 | > 100 | > 100 | > 100 | > 100 | 83.6 | > 100 | > 100 | > 100 | > 100 | > 100 | > 100 | > 100
11 | N/N=C(\c1nc2ccc([N+](=O)[O-])cc2[nH]c1=O)C(O)c1ccc(Cl)c(Cl)c1 (centres undefined) | > 100 | > 100 | > 100 | > 100 | > 100 | > 100 | > 100 | > 100 | > 100 | > 100 | > 100 | > 100 | > 100 | > 100 | > 100 | > 100 | > 100 | > 100 | > 100 | > 100
12 | COc1ccc2c(C)c(Oc3c(Cl)c(Cl)c(O)c(C#N)c3C#N)oc2c1 | > 100 | > 100 | > 100 | > 100 | > 100 | > 100 | > 100 | > 100 | > 100 | > 100 | > 100 | > 100 | > 100 | > 100 | > 100 | > 100 | > 100 | > 100 | > 100 | > 100
13 | C=C1C[C@@H]2O[C@H]3[C@H]4[C@@H](C[C@@H](C)[C@@H](OC(C)=O)[C@H]42)[C@@H](C)CO[C@@]3(C)[C@H](OC(=O)CCCCCCC)C[C@H]1O | 31.1 | 30.8 | 38 | 29.9 | 44.1 | 36.3 | 42.6 | 35.2 | 31.1 | 31.5 | 36 | 32.9 | 26.1 | 40.3 | 30.4 | 32.8 | 30.3 | – | 36.7 | 28.8
14 | CC(C)(C)C1CCC2c3c([nH]c4ccccc34)C3C(=O)N(c4ccccc4[N+](=O)[O-])C(=O)C3C2C1 (centres undefined) | 64.3 | 36.5 | 53.1 | 24.1 | 27.5 | > 100 | > 100 | 33.8 | – | – | 76 | 21.5 | 57.2 | 27 | 37.6 | 43.3 | 43.9 | > 100 | 35.6 | 26.7
15 | O=C1/C(=C/c2ccc(O)cc2)CCc2ccc([N+](=O)[O-])cc21 | > 100 | > 100 | > 100 | > 100 | > 100 | > 100 | > 100 | > 100 | > 100 | > 100 | > 100 | > 100 | > 92.7 | > 100 | > 100 | > 100 | > 100 | > 100 | > 100 | > 100
16 | CCC/C(Cl)=N/OC(=O)Nc1cc(C(F)(F)F)ccc1OC | 27.4 | 28.4 | > 20.7 | 3.45 | > 100 | 13.5 | 6.05 | 21.4 | 29.8 | 33.5 | 30.7 | 32.2 | 30.8 | 11.4 | 16.6 | 32.5 | 25 | 21.8 | 31.5 | 19.9
17 | Cc1cc2nc(C=C(C(F)(F)F)C(F)(F)F)sc2cc1C | 1.63 | 28.5 | > 100 | 13.7 | 3.86 | 13.2 | 1.41 | 3.31 | 11.3 | 4.41 | 7.78 | 7.59 | 6.79 | 10.7 | 8.91 | 5.91 | > 19.8 | 32.7 | 5.27 | 8.77
18 | O=c1[nH]c(N/N=C\C(=N/Nc2nc3ccccc3c(=O)[nH]2)C(O)C(O)C(O)CO)nc2ccccc12 (centres undefined) | > 100 | > 100 | > 100 | > 100 | > 100 | > 100 | > 100 | > 100 | > 100 | > 100 | > 100 | > 100 | > 100 | > 100 | > 100 | > 100 | > 100 | > 100 | > 100 | > 100
19 | CSc1nn(C)cc2ncnc1-2 | > 100 | > 100 | > 100 | > 100 | > 100 | > 100 | > 100 | > 100 | > 100 | > 100 | > 100 | > 100 | > 100 | > 100 | > 100 | > 100 | > 100 | – | > 100 | > 100
20 | O=C(NCCCNCCN1C(=O)c2cccc3cc([N+](=O)[O-])cc(c23)C1=O)c1cc(-c2ccccc2)nc2ccccc12 | 17.1 | 8.87 | 22.2 | 4.26 | 5.76 | 2.1 | 7.66 | 3.3 | 15.9 | 18.6 | 15.2 | 20.5 | 24.2 | 5.37 | 17.2 | 21.8 | 2.89 | 21.6 | 12.1 | 5.97
21 | CC(=O)NCCCCN(CCCNC(C)=O)C(=O)CNS(=O)(=O)c1cccc2c(N(C)C)cccc12 | > 100 | > 100 | > 100 | > 100 | > 100 | > 100 | > 100 | > 100 | > 100 | – | > 100 | > 100 | > 100 | > 100 | > 100 | > 100 | > 100 | > 100 | > 100 | > 100
22 | O/N=C(/CC(O)(C(F)(F)F)C(F)(F)F)c1ccccc1 | > 10 | > 10 | > 10 | > 10 | > 10 | > 10 | > 10 | > 10 | > 10 | > 10 | > 10 | > 10 | > 10 | > 10 | > 10 | > 10 | > 10 | > 10 | > 10 | > 10
